Assay results reported in EP1377579B1 (Aventis Pharmaceuticals Inc., priority 2000, dated 2002).
Counter-ions that a name gives are not always drawn.

How the values were obtained:
MDA-MB-435 = test: In vitro proliferation assay (MTT), MDA-MB-435; format: cell-based, human; conditions: Homo sapiens, MDA-MB-435, MTT assay; value (SD, n) where given; read-out: MB-435 Breast (IC50 µM)
Method in brief: (§1)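 Cells plated at 1000 to 2500 cells/well, allowed to attach overnight, then exposed to compounds for 3 days. Viable cells estimated by MTT dye, solubilized in DMSO, absorbance at 570 nm; IC50 taken from raw data.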

HL-60 = test: In vitro proliferation assay (MTT), HL-60; format: cell-based; conditions: Homo sapiens, HL-60; MTT assay; value (SD, n) where given; read-out: HL-60 Leuk. (IC50 µM)
Description: (§2) The proliferation of tumor cells can be measured using a tetrazolium salt-based assay known as the MTT (3-[4,5-Dimethylthiazol-2-yl]-2,5-diphenyltetrazolium bromide) assay. The proliferation test is performed essentially as described by Carmichael et al., Cancer Res. 47: 936-942, 1987. For the assay, the cell lines are plated onto 96 well plates at 1000 to 2500 cells/well (depending on the properties of the individual cell lines), left to attach and recover overnight. […] After 3 days, the cells are incubated with MTT dye (3-[4,5-Dimethylthiazol-2-yl]-2,5-diphenyltetrazolium bromide, Sigma # M5655, 10 mg/ml in Hank's Buffered Saline) to estimate the amount of live cells remaining vs. concentration for the test compounds. Specifically, MTT solution is added to a final concentration of […] and the plates incubated at 37 C for 2 to 4 hr. The MTT and culture medium is then removed from the cultures and 200 µl of DMSO is added to solubilize the dye from the cell layer. The absorbance at 570 nm is determined for each culture using a Spectramax plate reader (Molecular Devices).
(§3) IC50s were determined from the raw data from either the MTT or SRB assays.
(§4) All of the cell lines were obtained from American Type Tissue Collection, with the ATCC accession number in parentheticals. MCF-7 and MDA-MB-231 cells were grown in improved minimum essential medium (Biofluids) without phenol red, supplemented with 5 % fetal bovine serum, 0.01 mg/ml gentamicin and 3 mM L-glutamine. All of the other cell lines were grown in RPMI 1640 medium (Life Technologies) supplemented with 5 % fetal bovine serum, 0.01 mg/ml gentamicin and 3 mM L-glutamine TABLE 3

PC-3 = test: In vitro proliferation assay (MTT), PC-3; format: cell-based, human; conditions: Homo sapiens, PC-3, MTT assay; value (SD, n) where given; read-out: PC-3 Prostate (IC50 µM)
Method in brief: as §1

Jurkat = test: In vitro proliferation assay (MTT), Jurkat; format: cell-based; conditions: Homo sapiens, MTT assay, value (SD, n) where given, read-out: Jurkat Leuk. (IC50 µM)
Description: as §2, §3, §4

NCI-H460 = test: In vitro proliferation assay (MTT), NCI-H460; format: cell-based; conditions: Homo sapiens, NCI-H460; MTT assay; value (SD, n) where given; read-out: H-460 Lung (IC50 µM)
Method in brief: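 Cells were plated at 1000 to 2500 cells/well and allowed to attach overnight before compound exposure. After 3 days, viable cells were estimated with MTT dye for 2 to 4 hr at 37 C, then solubilized in DMSO and read at 570 nm. IC50s were derived from MTT or SRB raw data.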

cdk2/cyclin E = cdk2/cyclin E (Homo sapiens, UniProt P24941); test: Cyclin-dependent kinase assay, cdk2/cyclin E; conditions: CDK2 IC50, nM, GST-pRb substrate, 10 µM ATP
cdk1/cyclin B = cdk1/cyclin B (Homo sapiens, UniProt P06493); test: Cyclin-dependent kinase assay, cdk1/cyclin B; conditions: CDK1 IC50, nM, Histone H1, 10 µM ATP
cdk1/cyclin B, sequence (P06493 whole entry): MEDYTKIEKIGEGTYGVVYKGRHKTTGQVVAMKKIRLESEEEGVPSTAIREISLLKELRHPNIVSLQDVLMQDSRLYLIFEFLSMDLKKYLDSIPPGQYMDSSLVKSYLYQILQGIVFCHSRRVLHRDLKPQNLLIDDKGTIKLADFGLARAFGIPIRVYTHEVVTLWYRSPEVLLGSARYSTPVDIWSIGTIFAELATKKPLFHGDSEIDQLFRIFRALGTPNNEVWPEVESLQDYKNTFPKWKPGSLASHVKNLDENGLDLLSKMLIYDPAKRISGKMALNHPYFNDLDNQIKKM
cdk1/cyclin B, sequence (P14635 whole entry partner): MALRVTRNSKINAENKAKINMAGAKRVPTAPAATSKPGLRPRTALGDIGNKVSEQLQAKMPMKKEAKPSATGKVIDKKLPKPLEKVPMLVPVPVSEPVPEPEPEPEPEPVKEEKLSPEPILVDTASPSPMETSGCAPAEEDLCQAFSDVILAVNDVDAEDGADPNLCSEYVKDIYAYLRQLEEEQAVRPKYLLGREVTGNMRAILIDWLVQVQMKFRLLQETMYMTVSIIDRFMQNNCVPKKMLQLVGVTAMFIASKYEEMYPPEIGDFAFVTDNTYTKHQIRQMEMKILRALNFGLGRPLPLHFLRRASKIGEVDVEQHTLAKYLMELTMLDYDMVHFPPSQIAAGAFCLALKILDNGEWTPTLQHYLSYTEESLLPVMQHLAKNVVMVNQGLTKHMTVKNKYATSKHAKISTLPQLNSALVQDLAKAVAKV

Colo-205 = test: In vitro proliferation assay (MTT), Colo-205; format: cell-based; conditions: Homo sapiens, COLO 205; MTT assay; value (SD, n) where given; read-out: Colo-205 Colon (IC50 µM)
Method in brief: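 Colo-205 cells were seeded at 1000–2500 cells/well and allowed to attach overnight, then exposed to compound for 3 days. Viable cells were measured by MTT reduction (2–4 h, 37 °C), with DMSO-solubilised dye read at 570 nm. IC50 was derived from concentration–response data.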

cdk4/cyclin D1 = cdk4/cyclin D1 (Homo sapiens, UniProt P11802); test: Cyclin-dependent kinase assay, cdk4/cyclin D1; format: biochemical; conditions: cyclin D1/cdk4; GST-pRb substrate, 10 µM ATP
cdk4/cyclin D1, sequence (P11802 whole entry): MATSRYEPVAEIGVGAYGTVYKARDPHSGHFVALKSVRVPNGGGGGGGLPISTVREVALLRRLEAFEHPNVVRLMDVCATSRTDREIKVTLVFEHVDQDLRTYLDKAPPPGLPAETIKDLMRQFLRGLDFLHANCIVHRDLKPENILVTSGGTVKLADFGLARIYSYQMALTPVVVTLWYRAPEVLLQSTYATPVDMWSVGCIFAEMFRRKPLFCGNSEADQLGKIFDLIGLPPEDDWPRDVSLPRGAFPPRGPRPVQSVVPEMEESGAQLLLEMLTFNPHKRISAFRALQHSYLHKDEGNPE
cdk4/cyclin D1, sequence (P24385 whole entry partner): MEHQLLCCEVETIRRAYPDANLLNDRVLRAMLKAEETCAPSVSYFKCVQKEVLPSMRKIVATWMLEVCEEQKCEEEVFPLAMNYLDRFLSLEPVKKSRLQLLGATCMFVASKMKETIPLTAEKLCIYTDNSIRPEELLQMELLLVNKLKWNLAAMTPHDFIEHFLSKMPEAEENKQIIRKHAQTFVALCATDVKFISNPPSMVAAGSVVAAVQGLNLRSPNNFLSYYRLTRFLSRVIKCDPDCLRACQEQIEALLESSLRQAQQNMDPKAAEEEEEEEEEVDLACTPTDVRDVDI

| IC50 (MDA-MB-435) | IC50 (HL-60) | IC50 (PC-3) | IC50 (Jurkat) | IC50 (NCI-H460) | IC50 (cdk2/cyclin E) | IC50 (cdk1/cyclin B) | IC50 (Colo-205) | IC50 (cdk4/cyclin D1) | SMILES |
| --- | --- | --- | --- | --- | --- | --- | --- | --- | --- |
| 0.26 µM | 0.15 µM | 0.2 µM | 0.22 µM | 0.29 µM | 54 nM | 62 nM | 0.07 µM | 49 nM | N[C@H]1CC[C@H](Nc2nc(NC3CCN(S(=O)(=O)c4cccc5ccccc45)CC3)c3ncn(C4CCCC4)c3n2)CC1 [compound 123, trans-N^2-(4-Amino-cyclohexyl)-9-cyclopentyl-N^6-[1-(naphthalene-1-sulfonyl)-piperidin-4-yl]-9H-purine-2,6-diamine dihydrochloride] |
| 0.21 µM | < 0.02 µM | 0.15 µM | 0.21 µM | 0.12 µM | 35 nM | 74 nM | 0.04 µM | 590 nM | N[C@H]1CC[C@H](Nc2nc(NC3CCN(S(=O)(=O)c4ccc(C(F)(F)F)cc4[N+](=O)[O-])CC3)c3ncn(C4CCCC4)c3n2)CC1 [compound 132, trans-N^2-(4-Amino-cyclohexyl)-9-cyclopentyl-N^6-[1-(2-nitro-4-trifluoromethyl-benzenesulfonyl)-piperidin-4-yl]-9H-purine-2,6-diamine dihydrochloride] |
| 0.16 µM | 0.12 µM | 0.18 µM | 0.25 µM | 0.33 µM | 2 nM | 2 nM | 0.05 µM | 75 nM | N[C@H]1CC[C@H](Nc2nc(NC3CCN(S(=O)(=O)c4cccc5cccnc45)CC3)c3ncn(C4CCCC4)c3n2)CC1 [compound 144, trans-N^2-(4-Amino-cyclohexyl)-9-cyclopentyl-N^6-[1-(quinoline-8-sulfonyl)-piperidin-4-yl]-9H-purine-2,6-diamine dihydrochloride] |
| 0.35 µM | 0.04 µM | 0.34 µM | 0.32 µM | 0.42 µM | 42 nM | 18 nM | < 0.02 µM | 200 nM | N[C@H]1CC[C@H](Nc2nc(NC3CCN(C(=O)Nc4ccccc4)CC3)c3ncn(C4CCCC4)c3n2)CC1 [compound 146, trans-4-[2-(4-Amino-cyclohexylamino)-9-cyclopentyl-9H-purin-6-ylamino]-piperidine-1-carboxylic acid phenylamide dihydrochloride] |
| 0.33 µM | 0.03 µM | 0.36 µM | 0.51 µM | 0.56 µM | 46 nM | 38 nM | < 0.02 µM | 258 nM | N[C@H]1CC[C@H](Nc2nc(NC3CCN(C(=O)Nc4ccc(F)cc4)CC3)c3ncn(C4CCCC4)c3n2)CC1 [compound 147, trans-4-[2-(4-Amino-cyclohexylamino)-9-cyclopentyl-9H-purin-6-ylamino]-piperidine-1-carboxylic acid (4-fluoro-phenyl)-amide dihydrochloride] |
| 0.2 µM | < 0.02 µM | 0.25 µM | 0.24 µM | 0.19 µM | 55 nM | 26 nM | 0.02 µM | 91 nM | N[C@H]1CC[C@H](Nc2nc(NC3CCN(C(=O)Nc4ccc(Cl)cc4)CC3)c3ncn(C4CCCC4)c3n2)CC1 [compound 150, trans-4-[2-(4-Amino-cyclohexylamino)-9-cyclopentyl-9H-purin-6-ylamino]-piperidine-1-carboxylic acid (4-chloro-phenyl)-amide dihydrochloride] |
| 0.2 µM | 0.07 µM | 0.33 µM | 0.41 µM | 0.4 µM | 16 nM | 4 nM | 0.02 µM | 702 nM | N[C@H]1CC[C@H](Nc2nc(NC3CCN(C(=O)Nc4cccc(C(F)(F)F)c4)CC3)c3ncn(C4CCCC4)c3n2)CC1 [compound 159, trans-4-[2-(4-Amino-cyclohexylamino)-9-cyclopentyl-9H-purin-6-ylamino]-piperidine-1-carboxylic acid (3-trifluoromethyl-phenyl)-amide dihydrochloride] |
| 0.14 µM | < 0.02 µM | 0.12 µM | 0.19 µM | 0.18 µM | 72 nM | 15 nM | 0.04 µM | 603 nM | N[C@H]1CC[C@H](Nc2nc(NC3CCN(C(=O)Nc4ccc(Br)cc4)CC3)c3ncn(C4CCCC4)c3n2)CC1 [compound 162, trans-4-[2-(4-Amino-cyclohexylamino)-9-cyclopentyl-9H-purin-6-ylamino]-piperidine-1-carboxylic acid (4-bromo-phenyl)-amide dihydrochloride] |
| 0.17 µM | 0.05 µM | 0.21 µM | 0.28 µM | 0.21 µM | 57 nM | 37 nM | 0.19 µM | 855 nM | COc1ccccc1NC(=O)N1CCC(Nc2nc(N[C@H]3CC[C@H](N)CC3)nc3c2ncn3C2CCCC2)CC1 [compound 163, trans-4-[2-(4-Amino-cyclohexylamino)-9-cyclopentyl-9H-purin-6-ylamino]-piperidine-1-carboxylic acid (2-methoxy-phenyl)-amide dihydrochloride] |
| 0.08 µM | < 0.02 µM | 0.13 µM | 0.22 µM | 0.2 µM | 21 nM | 11 nM | 0.02 µM | 711 nM | N[C@H]1CC[C@H](Nc2nc(NC3CCN(C(=O)Nc4cccc(Cl)c4)CC3)c3ncn(C4CCCC4)c3n2)CC1 [compound 165, trans-4-[2-(4-Amino-cyclohexylamino)-9-cyclopentyl-9H-purin-6-ylamino]-piperidine-1-carboxylic acid (3-chloro-phenyl)-amide dihydrochloride] |
| 0.11 µM | 0.04 µM | 0.15 µM | 0.21 µM | 0.15 µM | 45 nM | 28 nM | 0.09 µM | 130 nM | N[C@H]1CC[C@H](Nc2nc(NC3CCN(C(=O)Nc4ccccc4Cl)CC3)c3ncn(C4CCCC4)c3n2)CC1 [compound 169, trans-4-[2-(4-Amino-cyclohexylamino)-9-cyclopentyl-9H-purin-6-ylamino]-piperidine-1-carboxylic acid (2-chloro-phenyl)-amide dihydrochloride] |
| 0.19 µM | < 0.02 µM | 0.26 µM | 0.24 µM | 0.3 µM | 51 nM | 3 nM | < 0.02 µM | 156 nM | N[C@H]1CC[C@H](Nc2nc(NC3CCN(C(=O)Nc4cccc(Br)c4)CC3)c3ncn(C4CCCC4)c3n2)CC1 [compound 170, trans-4-[2-(4-Amino-cyclohexylamino)-9-cyclopentyl-9H-purin-6-ylamino]-piperidine-1-carboxylic acid (3-bromo-phenyl)-amide dihydrochloride] |
| 0.25 µM | 0.05 µM | 0.23 µM | 0.31 µM | 0.23 µM | 89 nM | 51 nM | 0.14 µM | 963 nM | CCOc1ccccc1NC(=O)N1CCC(Nc2nc(N[C@H]3CC[C@H](N)CC3)nc3c2ncn3C2CCCC2)CC1 [compound 171, trans-4-[2-(4-Amino-cyclohexylamino)-9-cyclopentyl-9H-purin-6-ylamino]-piperidine-1-carboxylic acid (2-ethoxy-phenyl)-amide dihydrochloride] |
